The test system of series [1] is efflux pump. The series can be described thus: DiOC2 permeability test of efflux pump function in BBB chip. To be noted: hypoxia stimulation vs normoxia BBB chip; FIG. 9B. It is filed as in vitro ADME, human. The text has this: FIGS. 9A-9C are bar graphs showing the inhibition of the efflux transporter in control and hypoxic stimulated BBB chips by verapamil, MK-571 or KO143. […] All inhibitor-treated samples were independently normalized to the corresponding mock control.
A non-limiting example of assembling a BBB model in a microfluidic chip having flow, using the hypoxia differentiated PSCs-to-BMVECs is as follows. To assemble the BBB model on microfluidic chips, polydimethylsiloxane (PDMS) microfluidic chip was plasma treated (0.5 mbar, 50 W, 2 min) and coated with 0.01% poly-L-lysine solution for 1 hour. Subsequently, 400 ug/ml collagen IV and 100 μg/ml fibronectin were treated to microfluidic chips and incubated overnight in normal cell culture condition (37 C, 5% CO2, 20% O2). A day after coating, ECM solution was rinsed with EC+RA medium. The harvested astrocytes and pericytes were resuspended at 0.7 and 0.3 million cells/mL in EC+RA medium. Mixture of cells was seeded on apical micro-channel, and placed in incubator for 1 hour allowing the cells to adhere to membrane. The differentiated BMVECs on 6-cm plastic culture dish were dissociated using Accutase, harvested, and resuspended 25 million cells/mL in degassed EC+RA media. The differentiated BMVECs were seeded on basal micro-channel, and flip the entire PDMS chip upside down in petri dish to allow the BMVEC to attach to the membrane. […]

Series [2] concerns the target T1, ABCB1 (Homo sapiens, UniProt P08183).
T1 construct: The BBB model chip comprises iPSC-derived, hypoxia-stimulated or -differentiated BMVECs; endogenous in cells; host or cells: human iPSC (IMR90-4)-derived brain microvascular endothelial cells, co-cultured with astrocytes and pericytes on a microfluidic chip
Kind of series: Doxorubicin permeability across BBB chip with or without verapamil (efflux pump inhibition). It is filed as in vitro ADME. The following applies: FIG. 9C.
Excerpt: Doxorubicin is known as a substrate of ABCB1.

In series [3] the target is T2, ABCB (P-gp) (Homo sapiens, UniProt P08183).
T2 construct: host or cells: iPS-derived BMVEC (published protocol)
The following applies: iPS-derived BMVEC generated using published protocol, in vitro; cited from earlier work.

Series [4] concerns the target T3, ABCB (P-gp) (Mus musculus, UniProt P21447).
T3 construct: compared to in vivo efflux ratios (2.4-fold) (Cell, 1994, 77, 4)
To be noted: cited from earlier work.

T1 sequence (P08183 whole entry): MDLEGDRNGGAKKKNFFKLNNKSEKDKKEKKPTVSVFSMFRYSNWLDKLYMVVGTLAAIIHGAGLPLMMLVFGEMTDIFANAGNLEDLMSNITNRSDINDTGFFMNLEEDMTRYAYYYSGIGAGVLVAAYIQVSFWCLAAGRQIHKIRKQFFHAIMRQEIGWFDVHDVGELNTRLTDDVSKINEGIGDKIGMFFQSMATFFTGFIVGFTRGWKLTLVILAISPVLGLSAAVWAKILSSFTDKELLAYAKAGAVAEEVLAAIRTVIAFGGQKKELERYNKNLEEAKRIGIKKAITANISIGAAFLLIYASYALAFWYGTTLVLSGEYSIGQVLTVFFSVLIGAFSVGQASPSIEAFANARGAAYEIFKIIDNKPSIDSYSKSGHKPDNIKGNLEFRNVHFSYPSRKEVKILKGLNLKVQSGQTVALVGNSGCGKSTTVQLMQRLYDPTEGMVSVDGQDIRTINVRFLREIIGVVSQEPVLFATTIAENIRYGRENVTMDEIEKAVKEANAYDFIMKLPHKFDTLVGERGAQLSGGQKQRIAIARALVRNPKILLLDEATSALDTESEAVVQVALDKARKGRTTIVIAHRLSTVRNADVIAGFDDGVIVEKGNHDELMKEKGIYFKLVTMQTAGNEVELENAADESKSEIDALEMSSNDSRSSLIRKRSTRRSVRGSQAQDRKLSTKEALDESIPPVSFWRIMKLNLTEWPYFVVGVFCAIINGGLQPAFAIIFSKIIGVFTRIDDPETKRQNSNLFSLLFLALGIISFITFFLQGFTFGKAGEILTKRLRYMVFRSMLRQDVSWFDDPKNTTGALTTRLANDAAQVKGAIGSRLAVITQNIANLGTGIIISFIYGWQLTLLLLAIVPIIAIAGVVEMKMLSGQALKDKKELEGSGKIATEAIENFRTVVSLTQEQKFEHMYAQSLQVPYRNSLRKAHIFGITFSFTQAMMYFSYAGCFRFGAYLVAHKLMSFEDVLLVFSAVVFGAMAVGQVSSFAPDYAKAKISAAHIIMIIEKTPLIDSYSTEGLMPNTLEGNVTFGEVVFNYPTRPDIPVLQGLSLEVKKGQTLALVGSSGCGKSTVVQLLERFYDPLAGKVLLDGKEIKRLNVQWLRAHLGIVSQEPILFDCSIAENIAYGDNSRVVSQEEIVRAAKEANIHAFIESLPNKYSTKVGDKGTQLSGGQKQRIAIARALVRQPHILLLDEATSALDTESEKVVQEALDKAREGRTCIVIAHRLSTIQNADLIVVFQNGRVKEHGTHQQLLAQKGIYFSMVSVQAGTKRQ
T2 sequence (P08183 whole entry): as above
T3 sequence (P21447 whole entry): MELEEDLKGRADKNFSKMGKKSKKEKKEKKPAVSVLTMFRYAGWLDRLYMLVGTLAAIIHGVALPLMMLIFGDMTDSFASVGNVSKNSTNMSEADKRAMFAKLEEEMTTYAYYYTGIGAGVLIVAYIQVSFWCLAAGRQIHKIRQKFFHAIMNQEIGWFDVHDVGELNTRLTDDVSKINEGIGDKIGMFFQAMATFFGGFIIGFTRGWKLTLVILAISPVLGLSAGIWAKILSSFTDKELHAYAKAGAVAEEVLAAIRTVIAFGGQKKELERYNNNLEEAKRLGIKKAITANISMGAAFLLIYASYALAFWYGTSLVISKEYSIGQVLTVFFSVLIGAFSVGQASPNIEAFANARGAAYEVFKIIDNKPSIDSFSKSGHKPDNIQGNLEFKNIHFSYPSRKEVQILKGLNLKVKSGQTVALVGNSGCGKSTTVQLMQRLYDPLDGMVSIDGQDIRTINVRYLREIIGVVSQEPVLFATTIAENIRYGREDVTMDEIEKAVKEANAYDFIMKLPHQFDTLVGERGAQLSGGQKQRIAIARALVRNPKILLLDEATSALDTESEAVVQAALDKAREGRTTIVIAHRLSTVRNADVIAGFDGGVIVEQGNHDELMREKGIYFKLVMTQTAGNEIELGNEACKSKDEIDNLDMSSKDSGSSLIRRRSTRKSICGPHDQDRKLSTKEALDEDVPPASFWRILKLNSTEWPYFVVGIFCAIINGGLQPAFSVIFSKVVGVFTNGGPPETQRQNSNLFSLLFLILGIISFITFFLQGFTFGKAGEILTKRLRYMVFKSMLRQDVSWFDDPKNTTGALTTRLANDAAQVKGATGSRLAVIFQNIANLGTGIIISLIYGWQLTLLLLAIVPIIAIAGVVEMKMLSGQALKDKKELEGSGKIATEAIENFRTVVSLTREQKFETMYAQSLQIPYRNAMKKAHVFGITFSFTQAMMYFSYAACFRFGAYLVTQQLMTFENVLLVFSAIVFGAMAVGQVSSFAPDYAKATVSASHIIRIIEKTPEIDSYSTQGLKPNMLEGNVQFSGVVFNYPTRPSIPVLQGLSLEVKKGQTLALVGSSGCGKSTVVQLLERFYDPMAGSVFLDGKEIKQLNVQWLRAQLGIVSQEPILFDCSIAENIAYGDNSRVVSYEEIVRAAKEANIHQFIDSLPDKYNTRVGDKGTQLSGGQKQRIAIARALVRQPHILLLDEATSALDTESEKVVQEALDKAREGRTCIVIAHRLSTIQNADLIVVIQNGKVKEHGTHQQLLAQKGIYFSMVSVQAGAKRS

As to `CCN1/C(=C/C=C/c2oc3ccccc3[n+]2CC)Oc2ccccc21.[I-]` [DiO2], the “efflux pump function in DiO2 test” value in series [1] is on record as “enhanced efflux pump function”.
On to `COc1cccc2c1C(=O)c1c(O)c3c(c(O)c1C2=O)C[C@@](O)(C(=O)CO)C[C@@H]3O[C@H]1C[C@H](N)[C@H](O)[C@H](C)O1` [Doxorubicin, doxorubicin], for which the “doxorubicin permeability, increase by verapamil treatment” value in series [2] (hypoxia BBB chip, verapamil (ABCB1 inhibitor) vs mock control) came out at 2.7 fold. Further, the “change of doxorubicin BBB penetration by verapamil” value in series [2] (normoxia control BBB chip) is given as “did not show significant change”. Besides, the efflux ratio in series [3] is listed as 1.3 fold. Further, the “in vivo efflux ratios” value in series [4] was 2.4 fold.

The record behind these values is patent US11371022B2, “Blood-brain barrier endothelial cells derived from pluripotent stem cells for blood-brain barrier models” (PRESIDENT AND FELLOWS OF HARVARD COLLEGE, priority 2016, dated 2022).
